Measured values: patent publication US20110092544A1, “FUNGICIDAL PYRIDINES” (E.I. DU PONT DE nemours and company, priority 2008, published 2011)

Assays:
Assay type in all cases: in vivo
[1] = tested on: Erysiphe graminis f. sp. tritici; test: Test A: wheat powdery mildew, preventive spray on wheat seedlings, visual disease rating
Excerpt: (§1) General protocol for preparing test suspensions for Tests A-H: The test compounds were first dissolved in acetone in an amount equal to 3% of the final volume and then suspended at the desired concentration (in ppm) in acetone and purified water (50/50 mix) containing 250 ppm of the surfactant Trem® 014 (polyhydric alcohol esters). The resulting test suspensions were then used in tests A-H. Spraying a 200 ppm test suspension to the point of run-off on the test plants was the equivalent of a rate of 500 g/ha.
The test suspension was sprayed to the point of run-off on wheat seedlings. The following day the seedlings were inoculated with a spore dust of Erysiphe graminis f. sp. tritici (the causal agent of wheat powdery mildew) and incubated in a growth chamber at 20° C. for 8 days, after which time disease ratings were visually made.
(§2) Results for Tests A-H are given in Table A. In the table, a rating of 100 indicates 100% disease control and a rating of 0 indicates no disease control (relative to the controls). A dash (-) indicates no test results. All results are for compounds tested at 200 ppm except where the compound number is followed by “*” which indicates the compound was tested at 40 ppm.

[2] = tested on: Puccinia recondite f. sp. tritici; test: Test B: wheat leaf rust, preventive spray on wheat seedlings, visual disease rating
Excerpt: as §1
(§3) The test suspension was sprayed to the point of run-off on wheat seedlings. The following day the seedlings were inoculated with a spore suspension of Puccinia recondite f. sp. tritici (the causal agent of wheat leaf rust) and incubated in a saturated atmosphere at 20° C. for 24 h, and then moved to a growth chamber at 20° C. for 7 days, after which time disease ratings were visually made.
as §2

Septoria tritici = test: Test C: wheat leaf blotch, preventive spray on wheat seedlings, visual disease rating
Excerpt: as §1
as §3, with “Septoria” for “Puccinia recondite f. sp.”, “blotch)” for “rust)”, “48” for “24”, “and” for “and then”, “19 additional” for “7”
as §2

Septoria nodorum = test: Test D: wheat glume blotch, preventive spray on wheat seedlings, visual disease rating
Excerpt: as §1
as §3, with “Septoria nodorum” for “Puccinia recondite f. sp. tritici”, “glume blotch)” for “leaf rust)”, “48” for “24”
as §2

Alternaria solani = test: Test E: tomato early blight, preventive spray on tomato seedlings, visual disease rating
Excerpt: as §1
(§4) The test suspension was sprayed to the point of run-off on tomato seedlings. The following day the seedlings were inoculated with a spore suspension of Alternaria solani (the causal agent of tomato early blight) and incubated in a saturated atmosphere at 27° C. for 48 h, and then moved to a growth chamber at 20° C. for 5 days, after which time disease ratings were visually made.
as §2

Botrytis cinerea = test: Test F: tomato botrytis, preventive spray on tomato seedlings, visual disease rating
Excerpt: as §1
as §4, with “Botrytis cinerea” for “Alternaria solani”, “botrytis)” for “early blight)”, “in” for “in a”, “20°” for “27°”, “24°” for “20°”, “3 additional” for “5”
as §2

[3] = 200 ppm, 100 = 100% disease control, 0 = no control
[4] = 40 ppm (compound number followed by *)

Row | SMILES | Test A rating (% disease control) [1, 3] | Test B rating (% disease control) [2, 3] | Test C rating (% disease control) (Septoria tritici; [3]) | Test D rating (% disease control) (Septoria nodorum; [3]) | Test E rating (% disease control) (Alternaria solani; [3]) | Test F rating (% disease control) (Botrytis cinerea; [3]) | Test A rating (% disease control) [1, 4] | Test B rating (% disease control) [2, 4] | Test C rating (% disease control) (Septoria tritici; [4]) | Test D rating (% disease control) (Septoria nodorum; [4]) | Test E rating (% disease control) (Alternaria solani; [4]) | Test F rating (% disease control) (Botrytis cinerea; [4]) | further results
1 | COc1cc(OC)cc(-c2c(C(C)=O)cnc(C)c2-c2c(F)ccc(OC)c2F)c1 [Compound 105] | 100% | 99% | 93% | 0% | 0% | 98% | – | – | – | – | – | – | –
2 | CCC(C)c1cnc(C)c(-c2c(F)cc(F)cc2F)c1-c1cc(OC)cc(OC)c1 (centres unmarked) [Compound 73] | – | – | – | – | – | – | 100% | 100% | 94% | 0% | 91% | 99% | –
3 | COc1cc(OC)c(Cl)c(-c2c(C(C)=O)cnc(C)c2-c2c(F)cc(F)cc2F)c1 [Compound 118] | – | – | – | – | – | – | 100% | 100% | 96% | 0% | 99% | 100% | –
4 | CCOC(=O)c1cnc(C)c(-c2ccc(OC)cc2)c1-c1cc(OC)cc(OC)c1 [Compound 60] | 59% | 59% | 68% | 0% | 0% | 99% | – | – | – | – | – | – | –
5 | COc1cc(OC)cc(-c2c(-c3c(F)cccc3F)cnc(Cl)c2-c2c(F)cccc2F)c1 [Compound 76] | – | – | – | – | – | – | 0% | 28% | 0% | 0% | 0% | 0% | –
6 | COc1cc(OC)cc(-c2c(-c3ccc(F)cc3)cnc(C)c2-c2c(F)cc(F)cc2F)c1 [Compound 93] | – | – | – | – | – | – | 96% | 91% | 93% | 0% | 21% | 98% | –
7 | COc1cc(OC)cc(-c2c(C(C)=NO)cnc(C)c2-c2c(F)cc(F)cc2F)c1 (single isomer, unassigned) [Compound 117] | – | – | – | – | – | – | 93% | 100% | 99% | 82% | 99% | 99% | –
8 | COc1cc(OC)cc(-c2c(C(C)CO)cnc(C)c2-c2c(F)cccc2F)c1 (centres unmarked) [Compound 90] | – | – | – | – | – | – | 0% | 74% | 90% | 0% | 98% | 71% | –
9 | COc1cc(OC)cc(-c2c(C=O)cnc(C)c2-c2c(F)ccc(OC)c2F)c1 [Compound 113] | – | – | – | – | – | – | 0% | 89% | 76% | 0% | 9% | 79% | –
10 | COc1cc(OC)cc(-c2c(CN3CCCCC3)cnc(C)c2-c2c(F)cc(F)cc2F)c1 [Compound 111] | 93% | 97% | 91% | 0% | 0% | 99% | – | – | – | – | – | – | –
11 | COc1cc(OC)cc(-c2c(C(C)(C)OC(C)=O)cnc(C)c2-c2c(F)cc(F)cc2F)c1 [Compound 102] | 98% | 92% | 97% | 0% | 91% | 98% | – | – | – | – | – | – | –
12 | COc1cc(OC)cc(-c2c(COc3ccccc3)cnc(C)c2-c2c(F)cc(F)cc2F)c1 [Compound 109] | 98% | 97% | 97% | 0% | 0% | 92% | – | – | – | – | – | – | –
13 | CCC(O)(CC)c1cnc(C)c(-c2c(F)cc(F)cc2F)c1-c1cc(OC)cc(OC)c1 [Compound 98] | 86% | 92% | 92% | 0% | 9% | 93% | – | – | – | – | – | – | –
14 | COc1cc(OC)cc(-c2c(-c3ccc(F)cc3)cnc(C)c2-c2ccc(F)cc2)c1 [Compound 88] | – | – | – | – | – | – | 58% | 53% | 77% | 0% | 0% | 99% | –
15 | COc1cc(OC)cc(-c2c(C(C)C)cnc(C)c2-c2c(F)ccc(F)c2F)c1 [Compound 78] | – | – | – | – | – | – | 100% | 99% | 92% | 0% | 96% | – | –
16 | COc1cc(OC)cc(-c2c(C(O)C(C)C)cnc(C)c2-c2c(F)cc(F)cc2F)c1 (centres unmarked) [Compound 103] | 100% | 100% | 95% | 98% | 100% | 99% | – | – | – | – | – | – | –
17 | CCOC(=O)c1cnc(C)c(-c2c(F)ccc(F)c2F)c1-c1cc(OC)cc(OC)c1 [Compound 66] | 99% | 98% | 98% | 0% | 99% | 95% | – | – | – | – | – | – | –
18 | COc1cc(OC)cc(-c2c(C(C)(C)O)cnc(C)c2-c2c(F)cc(OC)cc2F)c1 [Compound 72, 5-(2,6-difluoro-4-methoxyphenyl)-4-(3,5-dimethoxyphenyl)-α,α,6-trimethyl-3-pyridinemethanol] | – | – | – | – | – | – | – | – | – | – | – | – | pest or weed control at 200 ppm ([1]; Blumeria graminis, 192 h, 200 ppm, 100 = 100% disease control, 0 = no control): 100%; pest or weed control at 200 ppm ([2]; 192 h, 200 ppm, 100 = 100% disease control, 0 = no control): 100%; pest or weed control at 200 ppm (Septoria tritici; Zymoseptoria tritici, 504 h, 200 ppm, 100 = 100% disease control, 0 = no control): 95%; pest or weed control at 200 ppm (Septoria nodorum; Parastagonospora nodorum, 216 h, 200 ppm, 100 = 100% disease control, 0 = no control): 100%; pest or weed control at 200 ppm (Alternaria solani; Alternaria solani, 168 h, 200 ppm, 100 = 100% disease control, 0 = no control): 100%; pest or weed control at 200 ppm (Botrytis cinerea; Botrytis cinerea, 120 h, 200 ppm, 100 = 100% disease control, 0 = no control): 99%
19 | COc1cc(OC)cc(-c2c(-c3c(F)cccc3F)cnc(C#N)c2-c2c(F)cccc2F)c1 [Compound 81] | 78% | 96% | 93% | 0% | 98% | 46% | – | – | – | – | – | – | –
20 | Cc1cnc(C)c(-c2c(F)cccc2F)c1-c1ccc(Cl)cc1 [Compound 144] | – | – | – | – | – | – | 0% | 0% | 0% | 0% | 0% | 45% | –
21 | CCC(O)c1cnc(C)c(-c2c(F)ccc(OC)c2F)c1-c1cc(OC)cc(OC)c1 (centres unmarked) [Compound 115] | – | – | – | – | – | – | 93% | 96% | 98% | 0% | 99% | 98% | –
22 | CCOC(=O)c1cnc(C)c(-c2c(F)cc(OC)cc2F)c1-c1cc(OC)cc(OC)c1 [Compound 70] | 94% | 95% | 93% | 0% | 79% | 97% | – | – | – | – | – | – | –
